The test system of assay [1] is phospho-SLP-76 (Ser376) in Jurkat cells. Nature of the assay: Phospho-SLP-76 (Ser376) Homogeneous Time Resolved Fluorescence (HTRF) assay in Jurkat cells. The assay is classed as cell-based. To be noted: Homo sapiens, read-out: SLP76 Assay_IC50. The procedure, abridged: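 Phospho-SLP-76 in lysates was read by sandwich HTRF and IC50 derived by four-parameter nonlinear regression. Before lysis, cells had received compound for 30 min (11-point, 3-fold series from 10 μM, 0.1% DMSO), followed by anti-CD3 F(ab)2 complex (200 μg/mL, 15 min, 37 °C).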
Background: In TR-FRET formats the signal depends on donor and acceptor labels being close together.

In assay [2] the target is human full-length recombinant HPK1 (Homo sapiens (Human), UniProt Q92918). Nature of the assay: HPK1 biochemical enzyme assay, microfluidic mobility shift assay (MSA). Particulars: read-out: HPK1 Enzyme Assay_Ki.
[3] abbreviates: 30 min pre-treatment, anti-CD3 stimulation 15 min, HTRF.
[4] abbreviates: mobility shift assay, 75 μM ATP, Morrison equation, tight-binding competitive inhibition.
Where [5] appears, read: Phospho-SLP-76 (Ser376) HTRF, anti-CD3 stimulation.

pIC50, pKi: −log10 of the molar value. Read-outs that look alike come from different tables or passages of the source.

Sequence of human full-length recombinant HPK1 (Q92918 whole entry): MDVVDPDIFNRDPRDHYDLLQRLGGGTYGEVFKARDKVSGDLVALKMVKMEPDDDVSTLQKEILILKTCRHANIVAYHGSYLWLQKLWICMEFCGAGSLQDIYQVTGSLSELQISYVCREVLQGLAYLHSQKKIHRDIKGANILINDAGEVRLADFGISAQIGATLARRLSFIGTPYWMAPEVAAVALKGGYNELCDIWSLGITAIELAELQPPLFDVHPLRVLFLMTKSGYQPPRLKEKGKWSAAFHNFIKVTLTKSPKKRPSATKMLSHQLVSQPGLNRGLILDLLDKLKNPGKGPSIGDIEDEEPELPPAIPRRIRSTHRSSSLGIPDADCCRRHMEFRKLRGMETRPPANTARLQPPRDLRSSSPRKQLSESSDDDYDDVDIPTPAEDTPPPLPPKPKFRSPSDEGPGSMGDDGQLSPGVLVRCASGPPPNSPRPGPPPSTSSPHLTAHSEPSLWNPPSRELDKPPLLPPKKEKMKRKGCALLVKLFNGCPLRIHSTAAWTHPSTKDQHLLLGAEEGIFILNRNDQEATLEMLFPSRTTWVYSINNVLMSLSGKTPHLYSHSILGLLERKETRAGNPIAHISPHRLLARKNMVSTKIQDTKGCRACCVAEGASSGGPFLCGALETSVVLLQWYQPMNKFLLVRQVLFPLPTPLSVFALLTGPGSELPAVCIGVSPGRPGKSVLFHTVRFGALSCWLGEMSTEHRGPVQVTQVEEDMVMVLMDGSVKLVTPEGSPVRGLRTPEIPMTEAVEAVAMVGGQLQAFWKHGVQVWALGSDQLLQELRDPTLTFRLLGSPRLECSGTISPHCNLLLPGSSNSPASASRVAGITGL

Consider `CC(C)c1cc2c(c(CN)n1)CN(c1cccc(N3C(=O)OC[C@@H]3C)n1)C2=O` [Example 41, 4-(aminomethyl)-2-{6-[(4S)-4-methyl-2-oxo-1,3-oxazolidin-3-yl]pyridin-2-yl}-6-(propan-2-yl)-2,3-dihydro-1H-pyrrolo[3,4-c]pyridin-1-one], for which the pIC50 in assay [1] (setting [3]) was 6.50. In assay [2] (setting [4]), the pKi is 8.34.
On to `CCn1cnnc1-c1cccc(N2Cc3c(cc(N(C)C(C)C)nc3CNC)C2=O)n1` [Example 71, 2-[6-(4-ethyl-4H-1,2,4-triazol-3-yl)pyridin-2-yl]-4-[(methylamino)methyl]-6-[methyl(propan-2-yl)amino]-2,3-dihydro-1H-pyrrolo[3,4-c]pyridin-1-one], for which, in assay [1] (setting [5]), the pIC50 was 7.40. Moreover, the pKi in assay [2] (HPK1 mobility shift assay) is 9.74.
The like results for `CCC(CC)n1cnnc1-c1cccc(N2Cc3c(cc(N(C)C(C)C)nc3CN)C2=O)n1` [Example 150] were, in that order, 7.48 and 10.22.
The like results for `CC(C)N(C)c1cc2c(c(CN)n1)CN(c1cccc(N3C(=O)OC[C@@H]3C)n1)C2=O` [Example 100, 4-(aminomethyl)-2-{6-[(4S)-4-methyl-2-oxo-1,3-oxazolidin-3-yl]pyridin-2-yl}-6-[methyl(propan-2-yl)amino]-2,3-dihydro-1H-pyrrolo[3,4-c]pyridin-1-one] were, in that order, 7.47 and above 10.30.
For `CNCc1nc(N2[C@H](C)CC[C@H]2C)cc2c1CN(c1cccc(-c3nnc(C)n3C(C)C)n1)C2=O` [Example 116, 6-[(2R,5R)-2,5-dimethylpyrrolidin-1-yl]-4-[(methylamino)methyl]-2-{6-[5-methyl-4-(propan-2-yl)-4H-1,2,4-triazol-3-yl]pyridin-2-yl}-2,3-dihydro-1H-pyrrolo[3,4-c]pyridin-1-one], in assay [1] (setting [5]), the pIC50 was 6.42. In addition, in assay [2] (HPK1 mobility shift assay), the pKi was 8.98.
With `CCN(CC)c1cc2c(c(CNC)n1)CN(c1cccc(-c3nncn3CC)n1)C2=O` [Example 9, 6-(diethylamino)-2-[6-(4-ethyl-4H-1,2,4-triazol-3-yl)pyridin-2-yl]-4-[(methylamino)methyl]-2,3-dihydro-1H-pyrrolo[3,4-c]pyridin-1-one], in assay [1] (setting [3]), the pIC50 was 7.06. For the same compound, the pKi in assay [2] (setting [4]) is 9.57.
As to `CCN(CC)c1cc2c(c(CNC)n1)CN(c1cccc(-c3nnc(C)n3CC)n1)C2=O` [Example 97, 6-(diethylamino)-2-[6-(4-ethyl-5-methyl-4H-1,2,4-triazol-3-yl)pyridin-2-yl]-4-[(methylamino)methyl]-2,3-dihydro-1H-pyrrolo[3,4-c]pyridin-1-one], the pIC50 in assay [1] (setting [5]) is 6.73. Further, the pKi in assay [2] (HPK1 mobility shift assay) was 9.47.
`CC[C@H](CC(F)(F)F)n1cnnc1-c1cccc(N2Cc3c(cc(C(C)(C)C)nc3CNC)C2=O)n1` (single isomer, unassigned) [Example 51, 6-tert-butyl-4-[(methylamino)methyl]-2-(6-{4-[(3ξ)-1,1,1-trifluoropentan-3-yl]-4H-1,2,4-triazol-3-yl}pyridin-2-yl)-2,3-dihydro-1H-pyrrolo[3,4-c]pyridin-1-one]: in assay [1] (setting [3]), the pIC50 is 5.82. In addition, the pKi in assay [2] (setting [4]) was 8.15.
Turning to `[2H]C([2H])([2H])C([2H])([2H])N(c1cc2c(c(CNC)n1)CN(c1cccc(-c3nncn3CC)n1)C2=O)C([2H])([2H])C([2H])([2H])[2H]` [Example 102, 6-{bis[(pentadeuterio)ethyl]amino}-2-[6-(4-ethyl-4H-1,2,4-triazol-3-yl)pyridin-2-yl]-4-[(methylamino)methyl]-2,3-dihydro-1H-pyrrolo[3,4-c]pyridin-1-one], the pIC50 in assay [1] (setting [5]) is 7.13. The pKi in assay [2] (HPK1 mobility shift assay) is 9.54.
The like results for `CC1(c2cc3c(c(CN)n2)CN(c2cccc(N4C(=O)OC[C@@H]4CF)n2)C3=O)CC1` [Example 85, 4-(aminomethyl)-2-{6-[(4R)-4-(fluoromethyl)-2-oxo-1,3-oxazolidin-3-yl]pyridin-2-yl}-6-(1-methylcyclopropyl)-2,3-dihydro-1H-pyrrolo[3,4-c]pyridin-1-one] were, in that order, 6.46 and 8.95.
The like results for `CCN(c1cc2c(c(CNC)n1)CN(c1cccc(-c3nncn3C(C)C)n1)C2=O)C(C)C` [Example 70, 6-[ethyl(propan-2-yl)amino]-4-[(methylamino)methyl]-2-{6-[4-(propan-2-yl)-4H-1,2,4-triazol-3-yl]pyridin-2-yl}-2,3-dihydro-1H-pyrrolo[3,4-c]pyridin-1-one] were, in that order, 7.21 and 9.80.
Consider `CNCc1nc(N(C)C)cc2c1CN(c1ccc(F)c(-c3cn[nH]c3C(C)C)n1)C2=O` [Example 22, 6-(dimethylamino)-2-{5-fluoro-6-[5-(propan-2-yl)-1H-pyrazol-4-yl]pyridin-2-yl}-4-[(methylamino)methyl]-2,3-dihydro-1H-pyrrolo[3,4-c]pyridin-1-one], for which the pIC50 in assay [1] (setting [3]) was 6.98. Also, the pKi in assay [2] (setting [4]) is 9.40.
As for `CNCc1nc(N(C)C(C)C)cc2c1CN(c1cccc(-c3nncn3C)n1)C2=O` [Example 81, 4-[(methylamino)methyl]-6-[methyl(propan-2-yl)amino]-2-[6-(4-methyl-4H-1,2,4-triazol-3-yl)pyridin-2-yl]-2,3-dihydro-1H-pyrrolo[3,4-c]pyridin-1-one], in assay [1] (setting [5]), the pIC50 was 6.39. Also, in assay [2] (HPK1 mobility shift assay), the pKi is 9.24.
The like results for `CCN(c1cc2c(c(CNC)n1)CN(c1cccc(-c3nncn3C)n1)C2=O)C(C)C` [Example 108, 6-[ethyl(propan-2-yl)amino]-4-[(methylamino)methyl]-2-[6-(4-methyl-4H-1,2,4-triazol-3-yl)pyridin-2-yl]-2,3-dihydro-1H-pyrrolo[3,4-c]pyridin-1-one] were, in that order, 6.23 and 8.43.
The like results for `CCCn1c(C)nnc1-c1cccc(N2Cc3c(cc(N4CCCC4(C)C)nc3CN)C2=O)n1` [Example 155] were, in that order, 7.26 and 9.80.
Regarding `CCn1cnnc1-c1cccc(N2Cc3c(cc(N4CCC[C@@H]4C)nc3CNC)C2=O)n1` [Example 114, 2-[6-(4-ethyl-4H-1,2,4-triazol-3-yl)pyridin-2-yl]-4-[(methylamino)methyl]-6-[(2S)-2-methylpyrrolidin-1-yl]-2,3-dihydro-1H-pyrrolo[3,4-c]pyridin-1-one], the pIC50 in assay [1] (setting [5]) was 7.43. Moreover, the pKi in assay [2] (HPK1 mobility shift assay) was 9.92.
The corresponding values for `CCN(c1cc2c(c(CN)n1)CN(c1cccc(N3C(=O)OC[C@@H]3CF)n1)C2=O)C(C)C` [Example 123, 4-(aminomethyl)-6-[ethyl(propan-2-yl)amino]-2-{6-[(4R)-4-(fluoromethyl)-2-oxo-1,3-oxazolidin-3-yl]pyridin-2-yl}-2,3-dihydro-1H-pyrrolo[3,4-c]pyridin-1-one] are 6.56 and 8.99.
The corresponding values for `CCC(CC)n1cnnc1-c1cccc(N2Cc3c(cc(C4CC4)nc3CN)C2=O)n1` [Example 129, 4-(aminomethyl)-6-cyclopropyl-2-{6-[4-(pentan-3-yl)-4H-1,2,4-triazol-3-yl]pyridin-2-yl}-2,3-dihydro-1H-pyrrolo[3,4-c]pyridin-1-one] are 7.03 and 9.51.
Turning to `CNCc1nc(C2(C)CC2)cc2c1CN(c1cccc(N3C(=O)OC[C@@H]3C)n1)C2=O` [Example 49, 4-[(methylamino)methyl]-6-(1-methylcyclopropyl)-2-{6-[(4S)-4-methyl-2-oxo-1,3-oxazolidin-3-yl]pyridin-2-yl}-2,3-dihydro-1H-pyrrolo[3,4-c]pyridin-1-one], the pIC50 in assay [1] (setting [3]) is 6.14. In addition, the pKi in assay [2] (setting [4]) was 8.84.
Regarding `CNCc1nc(NC(C)C)cc2c1CN(c1cccc(-c3nncn3C(C)C)n1)C2=O` [Example 78, 4-[(methylamino)methyl]-6-(propan-2-ylamino)-2-{6-[4-(propan-2-yl)-4H-1,2,4-triazol-3-yl]pyridin-2-yl}-2,3-dihydro-1H-pyrrolo[3,4-c]pyridin-1-one], the pIC50 in assay [1] (setting [5]) is 6.51. Also, the pKi in assay [2] (HPK1 mobility shift assay) was 9.14.
The like results for `CNCc1nc(N2C[C@@H](C)O[C@@H](C)C2)cc2c1CN(c1cccc(-c3nncn3C(C)C)n1)C2=O` [Example 112, 6-[2,6-dimethylmorpholin-4-yl]-4-[(methylamino)methyl]-2-{6-[4-(propan-2-yl)-4H-1,2,4-triazol-3-yl]pyridin-2-yl}-2,3-dihydro-1H-pyrrolo[3,4-c]pyridin-1-one] were, in that order, 6.37 and 8.83.
For `CNCc1nc(N(C)C)cc2c1CN(c1cccc(N3C(=O)OC[C@@H]3C)n1)C2=O` [Example 10, 6-(dimethylamino)-4-[(methylamino)methyl]-2-{6-[(4S)-4-methyl-2-oxo-1,3-oxazolidin-3-yl]pyridin-2-yl}-2,3-dihydro-1H-pyrrolo[3,4-c]pyridin-1-one], the pIC50 in assay [1] (setting [3]) was 7.01. For the same compound, the pKi in assay [2] (setting [4]) was 9.59.
Take `CNCc1nc(N2CCC2)cc2c1CN(c1cccc(-c3nncn3C(C)C)n1)C2=O` [Example 2, 6-(azetidin-1-yl)-4-[(methylamino)methyl]-2-{6-[4-(propan-2-yl)-4H-1,2,4-triazol-3-yl]pyridin-2-yl}-2,3-dihydro-1H-pyrrolo[3,4-c]pyridin-1-one]: the pIC50 in assay [1] (setting [3]) was 7.07. Also, in assay [2] (setting [4]), the pKi was 9.55.
With `CCCn1cnnc1-c1cccc(N2Cc3c(cc(N4[C@H](C)CC[C@H]4C)nc3CN)C2=O)n1` [Example 136, 4-(aminomethyl)-6-[(2R,5R)-2,5-dimethylpyrrolidin-1-yl]-2-[6-(4-propyl-4H-1,2,4-triazol-3-yl)pyridin-2-yl]-2,3-dihydro-1H-pyrrolo[3,4-c]pyridin-1-one], the pIC50 in assay [1] (setting [5]) was 6.97. For the same compound, the pKi in assay [2] (HPK1 mobility shift assay) was 9.14.

The values above are taken from patent US11142525B2 (Pfizer Inc., priority 2018, dated 2021).
